Source: patent publication US12472166B2, “Inhibition of mycobacterial type VII secretion” (priority 2019, dated 2025)
“Also recorded” adds a separate entry of the source.

Columns and labels:
Format in all cases: cell-based
[1] = system: ESX-5 dependent secretion
[2] = system: PE_PGRS and EsxN (ESX-5 dependent secretion)
[3] = system: Apa (SEC dependent secretion)

With CCOC(=O)CNC(=O)CSc1nc(-c2ccccc2)ns1 [Compound I-41, reference compound] the “effect on ESX-5 secretion activity (lipase DGGR vs viability REMA)” value (“effect … (lipase DGGR vs viability REMA)” for short) [1] was “affect ESX-5 secretion activity”.

COc1ccc(-c2nsc(SCC(=O)NCC3CCCC3)n2)cc1 [Compound I-38, reference compound] was tested, and the “effect … (lipase DGGR vs viability REMA)” value [1] was “do not affect the activity of ESX-5”.

With COc1ccc(-c2nsc(SCC(=O)NC3CCCC3)n2)cc1 [Compound I-12] the “secreted PE_PGRS proteins compared to DMSO control” value [2] was “most drastic decrease; also recorded: secretion inhibition similar to the non-functional ESX-5 mutant”, the “effect on secretion of the reporter lipase LipY when mspA was over-produced” value [1] was “showed no changes” and the “lipase secretion compared to DMSO treated control” value [1] was “significant reduction of lipase secretion”. The “secretion of Apa” value [3] was “did not affect secretion”.

For CO[C@H]1/C=C/O[C@@]2(C)Oc3c(C)c(O)c4c(O)c(c(/C=N/N5CCN(C)CC5)c(O)c4c3C2=O)NC(=O)/C(C)=C\C=C\[C@H](C)[C@H](O)[C@@H](C)[C@@H](O)[C@@H](C)[C@H](OC(C)=O)[C@@H]1C [Rifampin, reference compound], the “lipase activity (DGGR) readout, control condition” value [1] was “negative”.

O=C(CSc1nc(-c2ccccc2)ns1)NC1CCCC1 [Compound I-5] was tested, and the “effect … (lipase DGGR vs viability REMA)” value [1] was “significant reduction in lipase activity (substrate DGGR) before the bacterial viability (REMA) is affected”.

With Cc1cccc(-c2nsc(SCC(=O)NCC3CCCO3)n2)c1 (stereo not shown) [Compound I-39, reference compound] the “effect … (lipase DGGR vs viability REMA)” value [1] was “do not affect the activity of ESX-5”.

In the case of CCOC(=O)CNC(=O)CSc1nc(-c2cccc(C)c2)ns1 [Compound I-40, reference compound], the “effect … (lipase DGGR vs viability REMA)” value [1] is reported as “affect ESX-5 secretion activity”.
